Laboratory results published in the NIST ThermoML archive (doi:10.1021/je500977g).

Experiments:
[1] = Liquid, Vibrating tube method
[2] = mn = molality of the nth substance listed, in mol/kg; settings: Liquid, m2 = 0

O [water]
mass density [kg/m3], [1]
Settings | 101 kPa | 10000 kPa | 25000 kPa | 50000 kPa | 75000 kPa | 100000 kPa
278.15 K | 999.96 | 1004.78 | 1011.88 | 1023.2 | 1033.92 | 1044.08
288.15 K | – | 1003.67 | 1010.42 | 1021.21 | 1031.47 | 1041.23
298.15 K | – | 1001.47 | 1007.99 | 1018.44 | 1028.38 | 1037.86
308.15 K | – | 998.36 | 1004.75 | 1014.97 | 1024.71 | 1034
323.15 K | 988.03 | 992.31 | 998.61 | 1008.68 | 1018.27 | 1027.42

O [water] + C[N+](C)(C)[O-]
mass density [kg/m3], [2]
Settings | 278.15 K | 288.15 K | 298.15 K | 308.15 K | 323.15 K
101 kPa, Vibrating tube method | 999.96 | – | – | – | 988.03
10000 kPa, Constant-volume piezometry | 1004.78 | 1003.67 | 1001.47 | 998.36 | 992.31
25000 kPa, Constant-volume piezometry | 1011.88 | 1010.42 | 1007.99 | 1004.75 | 998.61
50000 kPa, Constant-volume piezometry | 1023.2 | 1021.21 | 1018.44 | 1014.97 | 1008.68
75000 kPa, Constant-volume piezometry | 1033.92 | 1031.47 | 1028.38 | 1024.71 | 1018.27
100000 kPa, Constant-volume piezometry | 1044.08 | 1041.23 | 1037.86 | 1034 | 1027.42
